Laboratory results published in patent US20240376121A1, “COMPOUNDS AND USES THEREOF” (Foghorn Therapeutics Inc., priority 2021, published 2024).

Legend:
[1] = biological target: T1, HiBit-BRG1 fusion protein (Homo sapiens, UniProt P51532); assay: HiBiT-BRG1 cell-based degradation assay (Nano-Glo HiBiT Lytic Detection); conditions: stable HeLa cell line expressing HiBit-BRG1 and LgBit, 24 h incubation; for Dmax: top dose 30 μM, read-out: BRG1 HiBit Degradation Maximum (%); for DC50: read-out: BRMG1 HiBit Degradation IC50
T1 construct: expressed in transfected cells
T1 sequence (P51532 whole entry, the tested form may be a part): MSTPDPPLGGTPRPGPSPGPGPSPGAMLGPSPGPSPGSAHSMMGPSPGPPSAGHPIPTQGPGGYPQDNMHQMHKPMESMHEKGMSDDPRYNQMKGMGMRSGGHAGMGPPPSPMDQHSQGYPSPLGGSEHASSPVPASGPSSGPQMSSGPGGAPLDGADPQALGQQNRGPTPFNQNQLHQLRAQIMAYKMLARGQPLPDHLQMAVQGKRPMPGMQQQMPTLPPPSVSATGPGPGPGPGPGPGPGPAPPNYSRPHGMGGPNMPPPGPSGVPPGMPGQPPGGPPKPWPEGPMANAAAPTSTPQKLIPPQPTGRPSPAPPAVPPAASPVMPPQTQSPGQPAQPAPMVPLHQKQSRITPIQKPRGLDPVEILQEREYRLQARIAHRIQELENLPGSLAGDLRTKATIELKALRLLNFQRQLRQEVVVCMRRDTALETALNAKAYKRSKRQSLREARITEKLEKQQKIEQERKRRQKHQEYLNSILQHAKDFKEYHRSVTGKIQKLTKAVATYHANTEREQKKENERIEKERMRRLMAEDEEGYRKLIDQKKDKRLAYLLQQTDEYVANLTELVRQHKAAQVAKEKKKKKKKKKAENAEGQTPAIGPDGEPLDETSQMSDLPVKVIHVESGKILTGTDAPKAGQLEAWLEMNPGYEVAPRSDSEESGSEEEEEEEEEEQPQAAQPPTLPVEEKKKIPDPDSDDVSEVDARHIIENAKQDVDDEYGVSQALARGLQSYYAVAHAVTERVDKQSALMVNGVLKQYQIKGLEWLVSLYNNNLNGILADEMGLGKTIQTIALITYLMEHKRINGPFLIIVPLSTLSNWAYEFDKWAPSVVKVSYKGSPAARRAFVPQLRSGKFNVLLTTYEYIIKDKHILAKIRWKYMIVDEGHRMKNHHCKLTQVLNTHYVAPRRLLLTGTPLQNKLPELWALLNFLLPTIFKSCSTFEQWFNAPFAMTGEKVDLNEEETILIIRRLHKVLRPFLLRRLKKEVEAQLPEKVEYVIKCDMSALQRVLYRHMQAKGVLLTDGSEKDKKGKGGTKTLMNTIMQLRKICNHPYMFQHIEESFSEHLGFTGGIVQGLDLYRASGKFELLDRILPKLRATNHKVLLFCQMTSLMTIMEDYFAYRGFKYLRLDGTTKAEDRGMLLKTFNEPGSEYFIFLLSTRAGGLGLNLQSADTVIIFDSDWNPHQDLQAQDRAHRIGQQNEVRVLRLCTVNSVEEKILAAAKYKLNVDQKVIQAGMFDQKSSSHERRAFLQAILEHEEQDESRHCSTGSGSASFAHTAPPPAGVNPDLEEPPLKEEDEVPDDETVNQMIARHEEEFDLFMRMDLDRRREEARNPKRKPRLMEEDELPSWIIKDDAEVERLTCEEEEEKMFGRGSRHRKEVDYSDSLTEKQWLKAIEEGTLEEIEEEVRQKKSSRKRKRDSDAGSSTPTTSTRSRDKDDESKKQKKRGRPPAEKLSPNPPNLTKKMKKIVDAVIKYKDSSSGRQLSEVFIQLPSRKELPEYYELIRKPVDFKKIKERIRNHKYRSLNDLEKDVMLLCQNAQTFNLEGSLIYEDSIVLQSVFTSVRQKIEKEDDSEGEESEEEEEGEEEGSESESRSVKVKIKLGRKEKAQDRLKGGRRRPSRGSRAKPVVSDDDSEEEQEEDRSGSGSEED
In short: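 HeLa cells stably expressing HiBiT-BRG1 and LgBiT treated 24 h with 10-point 3-fold dilutions (top 30 μM, duplicate). Luminescence read after Nano-Glo HiBiT lytic reagent; % degradation relative to DMSO (high control) and 2 μM reference BRM/BRG1 degrader (low control).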

[2] = biological target: T2, HiBit-BRM fusion protein (Homo sapiens, UniProt P51531); assay: HiBiT-BRM cell-based degradation assay (Nano-Glo HiBiT Lytic Detection); conditions: stable HeLa cell line expressing HiBiT-BRM, 24 h incubation; for BRM HiBit Degradation Maximum (%): top dose 30 μM; for DC50: read-out: BRM HiBit Degradation IC50
T2 construct: expressed in transfected cells
T2 sequence (P51531 whole entry, the tested form may be a part): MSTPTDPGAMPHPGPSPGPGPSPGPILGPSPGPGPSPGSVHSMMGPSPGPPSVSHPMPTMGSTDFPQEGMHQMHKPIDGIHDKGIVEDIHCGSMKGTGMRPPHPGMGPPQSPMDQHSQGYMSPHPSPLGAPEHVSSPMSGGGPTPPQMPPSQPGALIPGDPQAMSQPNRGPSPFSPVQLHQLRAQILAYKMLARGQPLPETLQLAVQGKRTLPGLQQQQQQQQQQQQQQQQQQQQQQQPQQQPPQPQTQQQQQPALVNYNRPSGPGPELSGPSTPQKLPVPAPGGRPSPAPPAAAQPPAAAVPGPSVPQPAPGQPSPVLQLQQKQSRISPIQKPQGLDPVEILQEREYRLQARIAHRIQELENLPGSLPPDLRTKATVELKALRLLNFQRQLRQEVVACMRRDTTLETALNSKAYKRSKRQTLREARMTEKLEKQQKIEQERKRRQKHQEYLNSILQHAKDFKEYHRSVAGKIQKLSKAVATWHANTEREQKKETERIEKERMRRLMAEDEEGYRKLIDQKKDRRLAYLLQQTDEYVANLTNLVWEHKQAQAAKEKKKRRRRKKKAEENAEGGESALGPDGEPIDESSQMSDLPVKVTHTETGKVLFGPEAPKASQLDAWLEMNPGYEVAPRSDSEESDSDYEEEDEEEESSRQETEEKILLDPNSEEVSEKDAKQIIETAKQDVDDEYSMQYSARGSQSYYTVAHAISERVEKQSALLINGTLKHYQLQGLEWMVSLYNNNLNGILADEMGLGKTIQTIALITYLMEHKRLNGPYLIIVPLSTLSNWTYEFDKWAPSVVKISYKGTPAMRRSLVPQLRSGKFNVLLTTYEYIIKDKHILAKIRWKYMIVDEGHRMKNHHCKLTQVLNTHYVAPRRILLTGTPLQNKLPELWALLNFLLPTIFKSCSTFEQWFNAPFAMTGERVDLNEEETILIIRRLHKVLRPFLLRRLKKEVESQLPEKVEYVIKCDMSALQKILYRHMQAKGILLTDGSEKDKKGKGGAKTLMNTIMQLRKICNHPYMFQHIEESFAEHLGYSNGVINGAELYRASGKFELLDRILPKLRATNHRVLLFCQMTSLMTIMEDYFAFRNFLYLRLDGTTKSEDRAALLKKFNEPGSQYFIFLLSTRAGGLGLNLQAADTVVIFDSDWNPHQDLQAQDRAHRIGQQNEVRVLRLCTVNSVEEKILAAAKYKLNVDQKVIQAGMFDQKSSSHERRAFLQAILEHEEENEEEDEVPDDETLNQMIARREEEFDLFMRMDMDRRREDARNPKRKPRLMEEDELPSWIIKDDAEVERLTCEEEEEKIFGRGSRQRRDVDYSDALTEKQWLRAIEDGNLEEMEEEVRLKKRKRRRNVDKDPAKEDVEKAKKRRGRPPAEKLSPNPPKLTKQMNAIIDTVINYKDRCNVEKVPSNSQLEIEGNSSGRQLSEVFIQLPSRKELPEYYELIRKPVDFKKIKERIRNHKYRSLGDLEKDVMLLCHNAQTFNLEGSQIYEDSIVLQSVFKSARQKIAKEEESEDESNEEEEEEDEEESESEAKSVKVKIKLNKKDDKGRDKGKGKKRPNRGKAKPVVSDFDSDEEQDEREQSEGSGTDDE
In short: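 Luminescence from reconstituted NanoBiT luciferase in lysed HeLa HiBiT-BRM cells served as the measure of remaining BRM after 24 h treatment. Compounds were tested from 30 μM final downward in 3-fold steps. DMSO and 2 μM of a standard BRM/BRG1 degrader defined the scale limits.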

| SMILES | Dmax [1] [%] | DC50 [1] [nM] | DC50 [2] [nM] | BRM HiBit Degradation Maximum (%) [2] |
| --- | --- | --- | --- | --- |
| Cc1ncsc1-c1ccc([C@H](C)NC(=O)[C@@H]2C[C@@H](O)CN2C(=O)[C@@H](c2cc(N3C[C@@H]4C[C@H]3CN4C(=O)[C@H]3CCc4sc5nnc(-c6ccccc6O)cc5c4C3)no2)C(C)C)cc1 [Compound 43, (2S,4R)-4-hydroxy-1-((R)-2-(3-((1S,4S)-5-((S)-3-(2-hydroxyphenyl)-5,6,7,8-tetrahydrobenzo[4,5]thieno[2,3-c]pyridazine-6-carbonyl)-2,5-diazabicyclo[2.2.1]heptan-2-yl)isoxazol-5-yl)-3-methylbutanoyl)-N-((S)-1-(4-(4-methylthiazol-5-yl)phenyl)ethyl)pyrrolidine-2-carboxamide] | < 50 | ≥ 1000 | ≥ 1000 | C (“C” indicates maximum degradation < 50%) |
| Cc1ncsc1-c1ccc([C@H](C)NC(=O)[C@@H]2C[C@@H](O)CN2C(=O)[C@@H](c2cc(N3CCN(C(=O)[C@@H]4CCc5sc6nnc(-c7ccccc7O)cc6c5C4)CC3)no2)C(C)C)cc1 (single isomer, unassigned) [Compound 53] | < 50 | ≥ 1000 | ≥ 1000 | C (“C” indicates maximum degradation < 50%) |
| Cc1ncsc1-c1ccc([C@H](C)NC(=O)[C@@H]2C[C@@H](O)CN2C(=O)[C@@H](c2cc(OCCN3CCC(N4CC(c5sc6nnc(-c7ccccc7O)cc6c5C)C4)CC3)no2)C(C)C)cc1 [Compound 100, (2S,4R)-4-hydroxy-1-((R)-2-(3-(2-(4-(3-(3-(2-hydroxyphenyl)-5-methylthieno[2,3-c]pyridazin-6-yl)azetidin-1-yl)piperidin-1-yl)ethoxy)isoxazol-5-yl)-3-methylbutanoyl)-N-((S)-1-(4-(4-methylthiazol-5-yl)phenyl)ethyl)pyrrolidine-2-carboxamide] | < 50 | ≥ 1000 | ≥ 10 | A (“A” indicates maximum degradation ≥ 75%) |

The next lines start with results.

| Dmax [1] [%] | DC50 [1] [nM] | DC50 [2] [nM] | SMILES | BRM HiBit Degradation Maximum (%) [2] |
| --- | --- | --- | --- | --- |
| ≥ 50 | ≥ 1000 | ≥ 1000 | Cc1ncsc1-c1ccc([C@H](C)NC(=O)[C@@H]2C[C@@H](O)CN2C(=O)[C@@H](c2cc(OCC(=O)N3CC(c4cc5nnc(-c6ccccc6O)cc5s4)C3)no2)C(C)C)cc1 [Compound 106, (2S,4R)-4-hydroxy-1-((R)-2-(3-(2-(3-(3-(2-hydroxyphenyl)thieno[3,2-c]pyridazin-6-yl)azetidin-1-yl)-2-oxoethoxy)isoxazol-5-yl)-3-methylbutanoyl)-N-((S)-1-(4-(4-methylthiazol-5-yl)phenyl)ethyl)pyrrolidine-2-carboxamide] | C (“C” indicates maximum degradation < 50%) |
| < 50 | ≥ 1000 | ≥ 10 | Cc1ncsc1-c1ccc([C@H](C)NC(=O)[C@@H]2C[C@@H](O)CN2C(=O)[C@@H](c2cc(N3CCC(CN4CC(c5cc6nnc(-c7ccccc7O)cc6s5)C4)CC3)no2)C(C)C)cc1 [Compound 103, (2S,4R)-4-hydroxy-1-((R)-2-(3-(4-((3-(3-(2-hydroxyphenyl)thieno[3,2-c]pyridazin-6-yl)azetidin-1-yl)methyl)piperidin-1-yl)isoxazol-5-yl)-3-methylbutanoyl)-N-((S)-1-(4-(4-methylthiazol-5-yl)phenyl)ethyl)pyrrolidine-2-carboxamide] | A (“A” indicates maximum degradation ≥ 75%) |
| < 50 | ≥ 1000 | ≥ 10 | Cc1ncsc1-c1ccc([C@H](C)NC(=O)[C@@H]2C[C@@H](O)CN2C(=O)[C@@H](c2cc(N3CCC(C(=O)N4CC(c5sc6nnc(-c7ccccc7O)cc6c5C)C4)CC3)no2)C(C)C)cc1 [Compound 10] | A (“A” indicates maximum degradation ≥ 75%) |
